Series [1] in a line: Stability in human liver S9 fraction (HLS9). The conditions noted are these: 10 μM, 1.0 mg/mL protein, NADPH, 60 min. Format: in vitro ADME. The method, then:
(§1) Stability of Compound 1 and its diastereomer were determined in subcellular fractions (microsomes and S9) of human liver and intestine in duplicate for each matrix. Pooled liver and intestinal microsomal, intestinal and liver S9 proteins (1.0 mg/mL), suspended in incubation buffer (100 mM potassium phosphate, pH 7.4, 5 mM MgCl2, and 0.1 mM EDTA), were preincubated for 5 min at 37° C. with 10 μM of a test compound from a 10 mM stock solution in DMSO (final DMSO concentration was 0.1%); the reaction was initiated by the addition of NADPH (3 mM final concentration). At specific times (0 and 60 min), 0.1 mL samples were taken and the reaction terminated by the addition of 4 volumes of stop solution (acetonitrile with 500 ng/mL carbutamide as an internal standard). The samples were vortexed for 30 sec and then centrifuged at 16,000 g for 10 min. 100 μL of supernatants were transferred to 96 deep-well plates preloaded with 100 μL distilled water and analyzed after mixing by LC-MS/MS. The MS peak area ratio of the test compound versus the internal standard was calculated and percent unchanged test compound over 60 minutes was calculated using this ratio.

For another series, the system named is mouse hepatocytes. Description: Release of active metabolite in mouse hepatocytes. Format: in vitro ADME. Conditions: 10 μM test compound. As for the experimental part: (§2) Plates of fresh human and mouse hepatocytes were obtained on ice. The medium was removed and replaced with hepatocyte culture medium (William's E supplemented with penicillin-streptomycin, 1% L-glutamine, 1% insulin-transferrin-selenium and 0.1 μM Dexamethasone (Invitrogen) or with Invitro GRO HI medium complemented with Torpedo antibiotics (Celsis)). Cells were left overnight in an incubator at 37° C. to acclimatize to culture and the medium.
(§3) Hepatocyte incubations were conducted at a final volume of 0.5 mL hepatocyte culture medium/well (0.8 million cells/well for human and 0.5 million cells/well for mouse; 12 well plate no overlay, collagen coat). Culture medium from overnight incubation of cells was removed and replaced with fresh medium, pre-warmed to 37° C., containing 10 μM of the test compound from a stock solution in DMSO (final DMSO concentration was 0.1%). At each specific time point, incubation medium was removed and cell monolayers were carefully washed two times with ice-cold PBS. Following the last wash, all PBS was carefully removed and 1.0 mL of extraction solution (ice-cold 70% methanol/30% water) added. Cells were scraped off and suspended in the extraction solution, transferred to 2 mL polypropylene microfuge tubes and intracellular contents extracted overnight at −20° C.
(§4) After the overnight treatment the cellular extracts were prepared by centrifugation at 16,000×g for 10 min to remove cellular debris. The remaining sample was then dried using a refrigerated centrivap concentrator. Dry extracts were reconstituted in 1000 μL of HPLC-grade water and centrifuged at 16,000×g for 10 min. Aliquots (100 μL each) of the supernatant were transferred into a 96 well plate and 2′-C-methyl-adenosine 5′-triphosphate, trisodium salt (4 ng/mL final concentration) was added as the internal standard (1S) for LC-MS/MS analysis.
(§5) The incubation time points were 6, 24 and 48 hours for human hepatocytes and 1, 4, 8, 12 and 24 hours for mouse hepatocytes.

Series [2] is described as follows: Stability in HIS9 (intestinal S9). Format: in vitro ADME, human. Conditions: 10 μM, 1.0 mg/mL protein, NADPH, 60 min. As for the experimental part: HLM=Human liver microsome; HIM=Human intestinal microsome; HLS9=Human liver S9 fraction; HIS9=Human […] S9 fraction; SGF=Simulated gastric fluid; SIF=Simulated intestinal fluid.
as §1

A short description of series [3]: Stability in simulated gastric fluid (SGF). Format: in vitro ADME. Conditions: 100 μM, 2 hours at 37° C. The method, then:
(§6) Simulated gastric and intestinal fluids containing pepsin and pancreatin respectively were prepared according to the U.S. Pharmacopoeia USP291 procedure (www.pharmacopeia.cn/v29240/usp29nf24s0_ris1s126.html). Test compound (final concentration 100 μM) was incubated in duplicate in the appropriate fluid for 2 hours at 37° C. The samples were quenched with 200 μl cold acetonitrile, vortexed for 30 seconds and then centrifuged at 16,100 g for 10 min. The supernatants were analyzed by HPLC on a C-18 column with UV detection at 252 nm. The time 0 samples were prepared by adding SGF or SIF fluid to the quenching solvent followed by the test compound. Stability of the compound was determined by peak area the test compound after incubation and calculated as percent of the peak area observed at time zero.

The next series relates to fresh human hepatocytes. In words: Release of active metabolite in fresh human hepatocytes. Conditions: intracellular triphosphate, 10 μM test compound. It counts as in vitro ADME. The method, then:
as §2, §3, §4, §5

The next series has as its system HCV genotype 1b replicon. In words: microbe, parasite or virus in culture. It counts as cell-based. Conditions: read-out: HCV Replicon EC50. The method, then:
Huh-7-derived cell line (Zluc) that harbors an HCV genotype 1b replicon and a luciferase reporter gene was grown in Dulbecco's Modified Eagle Medium (DMEM) supplemented with 10% fetal bovine serum, 2 mM GlutaMAX, 1% MEM nonessential amino acids, 100 IU/mL penicillin, 100 μg/mL streptomycin, and 0.5 mg/mL Geneticin® (G418). For dose response testing the cells were seeded in 96-well plates at 7.5×10^3 cells per well in a volume of 50 μL, and incubated at 37° C./5% CO2. Drug solutions were made up freshly in Huh-7 media as 2× stocks. Ten additional 5-fold dilutions were prepared from these stocks in DMEM without G418. At least three hours after Zluc cells were seeded, drug treatment was initiated by adding 50 μL of drug dilutions to the plates in duplicate. […] Cells were then incubated at 37° C./5% CO2. Alternatively compounds were tested at two concentrations (10 nM and 100 nM). […] For this, media was removed from the plates via gentle tapping. Fifty microliters of ONE-glo luciferase assay reagent was added to each well. […] The EC50 values were calculated from dose response curves from the resulting best-fit equations determined by Microsoft Excel and XLfit 4.1 software.
On the technique in general: In antiviral work, replicon cells carry a viral genome segment that copies itself.

A short description of series [4]: Stability in human liver microsomes (HLM). It counts as in vitro ADME. The conditions noted are these: 10 μM, 1.0 mg/mL protein, NADPH, 60 min. The method, then:
as §1
(In general: Microsomes from liver hold many membrane-bound enzymes, among them those of drug oxidation.)

Series [5] can be described thus: Stability in simulated intestinal fluid (SIF). Format: in vitro ADME. Conditions: 100 μM, 2 hours at 37° C. The method, then:
as §6

pEC50: −log10 of the molar value. Where two headings read alike, the source gives them in different places.

As usually defined, the pEC50 is −log10 of the EC50, conventionally taken in molar units. Regarding `CCOC(=O)OC(C)OP(=O)(N[C@@H](C)C(=O)OC(C)C)OC[C@H]1O[C@@H](n2cnc3c(OC)nc(N)nc32)[C@](C)(F)[C@@H]1O` (single isomer, unassigned) [Compound 14], the “Percent Remaining, HLS9 (1 hr)” value in series [1] came to 0.7%. Moreover, in the series on mouse hepatocytes, the “MsH AUC” value is on record as 8704 pmol.hr/mill cells and the “MsH Cmax” value came to 7534 pmol/mill cells. The “Percent Remaining, HIS9 (1 hr)” value in series [2] was found to be 53%. In series [3], the “Percent Remaining, SGF” value was 91%. Further, in the series with fresh human hepatocytes, the “FHH TP AUC” value came out at 4006 pmol.hr/mill cells and the “FHH TP Cmax” value is reported as 155 pmol/mill cells. Besides, the pEC50 with HCV genotype 1b replicon (Hepatitis C virus, 72 h) was over 7.00. Moreover, the “Percent Remaining, HLM (1 hr)” value in series [4] is reported as 0%. Further, the “Percent Remaining, SIF” value in series [5] is 39%.

In the case of `CCOC(=O)OC(C)OP(=O)(N[C@@H](C)C(=O)OC(C)C)OC[C@H]1O[C@@H](n2cnc3c(OC)nc(N)nc32)[C@](C)(F)[C@@H]1O` (single isomer, unassigned) [Compound 15], in series [1], the “Percent Remaining, HLS9 (1 hr)” value is recorded as 0%. In addition, in the series on mouse hepatocytes, the “MsH AUC” value was 218 pmol.hr/mill cells and the “MsH Cmax” value amounted to 216 pmol/mill cells. Also, the “Percent Remaining, HIS9 (1 hr)” value in series [2] amounted to 76%. The “Percent Remaining, SGF” value in series [3] is 97%. In the series on fresh human hepatocytes, the “FHH TP AUC” value is 4453 pmol.hr/mill cells and the “FHH TP Cmax” value was found to be 139 pmol/mill cells. The pEC50 with HCV genotype 1b replicon (Zluc cells, HCV genotype 1b replicon, luciferase, 72 hours of incubation) is over 7.00. Besides, in series [4], the “Percent Remaining, HLM (1 hr)” value is 0%. In addition, in series [5], the “Percent Remaining, SIF” value is 0%.

The record behind these values is US20130064794A1, “Substituted Carbonyloxymethylphosphoramidate Compounds and Pharmaceutical Compositions for the Treatment of Viral Infections” (IDENIX PHARMACEUTICALS, INC., priority 2011, published 2013).
